As a reminder, the Emax is the size of the effect at its maximum, as opposed to the concentration needed. As a reminder, the EC50 is the concentration at which the effect is half-maximal.

Drawing on patent US20250230155A1 (Vanderbilt University, priority 2021, published 2025), this text covers Emax and EC50 for 27 compounds.

This test has as its target T1, human mAChR M4 (Homo sapiens, UniProt P08173).
T1 construct: expressed in transfected cells
T1 sequence (P08173 1-479): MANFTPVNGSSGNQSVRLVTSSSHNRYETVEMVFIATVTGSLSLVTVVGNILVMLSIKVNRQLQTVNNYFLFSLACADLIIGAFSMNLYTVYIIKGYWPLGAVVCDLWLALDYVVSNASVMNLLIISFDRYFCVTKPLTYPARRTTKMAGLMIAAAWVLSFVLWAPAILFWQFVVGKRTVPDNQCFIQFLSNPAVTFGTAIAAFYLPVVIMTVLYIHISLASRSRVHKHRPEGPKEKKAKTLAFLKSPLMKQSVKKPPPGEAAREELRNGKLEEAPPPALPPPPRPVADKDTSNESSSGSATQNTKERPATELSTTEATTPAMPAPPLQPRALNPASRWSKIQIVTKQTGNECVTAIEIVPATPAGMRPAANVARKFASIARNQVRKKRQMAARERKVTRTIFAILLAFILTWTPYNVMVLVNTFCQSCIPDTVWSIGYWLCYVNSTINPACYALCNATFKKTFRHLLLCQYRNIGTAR
Kind of test: mAChR M4 cell-based functional assay (calcium mobilization, CHO-K1 hM4-Gqi5 cells). The note with it: for Emax at 30 µM: CHO-K1, % ACh maximum at 30 μM, human M4; for EC50: positive allosteric modulator activity, increase in the EC20 acetylcholine response, CHO-K1 hM4-Gqi5 cells, read-out: Human M4 EC50. Summed up:
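CHO-K1 cells stably expressing human M4 with chimeric Gqi5, loaded with Fluo-4 AM; compounds given as 11-point 1:3 curves and calcium flux read on FDSS at 1 Hz. Acetylcholine EC20 added at 144 s, EC80 at 230 s; agonist, PAM (EC20 potentiation) and antagonist (EC80 inhibition) EC50/Emax from four-parameter fits.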
(In general: Calcium assays in cells follow changes in intracellular calcium, usually with a dye or a luminescent sensor.)

As for `FC(F)(F)c1cnc2c(c1)CN(c1nc(Cl)nc3c1CCCC3)CC2` [compound 264, 2-chloro-4-(3-(trifluoromethyl)-7,8-dihydro-1,6-naphthyridin-6(5H)-yl)-5,6,7,8-tetrahydroquinazoline], the Emax at 30 µM came to 66% and the EC50 was determined as 1620 nM.

Take `FC(F)(F)c1cnc2c(c1)CN(c1nc(C3CC3)nc3c1CCC3)CC2` [compound 265, 6-(2-cyclopropyl-6,7-dihydro-5H-cyclopenta[d]pyrimidin-4-yl)-3-(trifluoromethyl)-5,6,7,8-tetrahydro-1,6-naphthyridine]: the half-maximal effective concentration (EC50) was 1480 nM. Regarding `FC(F)(F)c1cnc2c(c1)CN(c1nc(C3CC3)nc3c1CCCC3)CC2` [compound 266, 2-cyclopropyl-4-(3-(trifluoromethyl)-7,8-dihydro-1,6-naphthyridin-6(5H)-yl)-5,6,7,8-tetrahydroquinazoline], the Emax at 30 µM was found to be 38% and the EC50 was 4570 nM. With `Cc1nc2c(c(N3CCc4ncc(C(F)(F)F)cc4C3)n1)CCC2` [compound 267, 6-(2-methyl-6,7-dihydro-5H-cyclopenta[d]pyrimidin-4-yl)-3-(trifluoromethyl)-5,6,7,8-tetrahydro-1,6-naphthyridine], the EC50 amounted to 1030 nM.

As to `Cc1nc2c(c(N3CCc4ncc(C(F)(F)F)cc4C3)n1)CCCC2` [compound 268, 2-methyl-4-(3-(trifluoromethyl)-7,8-dihydro-1,6-naphthyridin-6(5H)-yl)-5,6,7,8-tetrahydroquinazoline], the Emax at 30 µM is 68% and the EC50 was determined as 4190 nM. `Cc1ccc(Oc2cnc3c(c2)CN(c2nc(C)nc(C)c2C)CC3)c(F)c1` [compound 269, 3-(2-fluoro-4-methylphenoxy)-6-(2,5,6-trimethylpyrimidin-4-yl)-5,6,7,8-tetrahydro-1,6-naphthyridine]: the Emax at 30 µM turned out to be 89% and the EC50 was found to be 1080 nM. For the compound `Cc1nn(C)cc1-c1cnc2c(c1)CN(c1nc(N3CCOCC3)nc(C)c1C)CC2` [compound 270, 4-(4-(3-(1,3-dimethyl-1H-pyrazol-4-yl)-7,8-dihydro-1,6-naphthyridin-6(5H)-yl)-5,6-dimethylpyrimidin-2-yl)morpholine], the maximal effect (Emax) at 30 µM was found to be 70% and the EC50 came out at 896 nM. For `Cc1nn(C)cc1-c1cnc2c(c1)CN(c1nc(N3CCCC3)nc(C)c1C)CC2` [compound 271, 3-(1,3-dimethyl-1H-pyrazol-4-yl)-6-(5,6-dimethyl-2-(pyrrolidin-1-yl)pyrimidin-4-yl)-5,6,7,8-tetrahydro-1,6-naphthyridine], in that order: 78% and 214 nM. Turning to `Cc1nn(C)cc1-c1cnc2c(c1)CN(c1nc(NC3CC3)nc(C)c1C)CC2` [compound 272, N-cyclopropyl-4-(3-(1,3-dimethyl-1H-pyrazol-4-yl)-7,8-dihydro-1,6-naphthyridin-6(5H)-yl)-5,6-dimethylpyrimidin-2-amine], the Emax at 30 µM worked out at 78% and the 50% effective concentration (EC50) stood at 466 nM. As to `Cc1nn(C)cc1-c1cnc2c(c1)CN(c1nc(NC3CCOC3)nc(C)c1C)CC2` (stereo not drawn) [compound 273, 4-(3-(1,3-dimethyl-1H-pyrazol-4-yl)-7,8-dihydro-1,6-naphthyridin-6(5H)-yl)-5,6-dimethyl-N-(tetrahydrofuran-3-yl)pyrimidin-2-amine], the maximal response (Emax) at 30 µM was found to be 92% and the EC50 worked out at 639 nM. Take `Cc1nn(C)cc1-c1cnc2c(c1)CN(c1nc(NCC(C)(C)O)nc(C)c1C)CC2` [compound 274, 1-((4-(3-(1,3-dimethyl-1H-pyrazol-4-yl)-7,8-dihydro-1,6-naphthyridin-6(5H)-yl)-5,6-dimethylpyrimidin-2-yl)amino)-2-methylpropan-2-ol]: the Emax at 30 µM is 87% and the concentration for a half-maximal effect (EC50) was found to be 735 nM. For `Cc1nn(C)cc1-c1cnc2c(c1)CN(c1nc(N3CCN(C)CC3)nc(C)c1C)CC2` [compound 275, 3-(1,3-dimethyl-1/-pyrazol-4-yl)-6-(5,6-dimethyl-2-(4-methylpiperazin-1-yl)pyrimidin-4-yl)-5,6,7,8-tetrahydro-1,6-naphthyridine], in that order: 86% and 981 nM.

With `Cc1nc(N2CCOCC2)nc(N2CCc3ncc(Nc4ccnn4C)cc3C2)c1C` [compound 276, 6-(5,6-dimethyl-2-morpholinopyrimidin-4-yl)-N-(1-methyl-1H-pyrazol-5-yl)-5,6,7,8-tetrahydro-1,6-naphthyridin-3-amine], the Emax at 30 µM came out at 100% and the EC50 was 377 nM. With `Cc1nc(N2CCCC2)nc(N2CCc3ncc(Nc4ccnn4C)cc3C2)c1C` [compound 277, 6-(5,6-dimethyl-2-(pyrrolidin-1-yl)pyrimidin-4-yl)-N-(1-methyl-1H-pyrazol-5-yl)-5,6,7,8-tetrahydro-1,6-naphthyridin-3-amine], the maximal effect (Emax) at 30 µM was 98% and the half-maximal effective concentration (EC50) was 92 nM.

As to `Cc1nc(NC2CC2)nc(N2CCc3ncc(Nc4ccnn4C)cc3C2)c1C` [compound 278, 6-(2-(cyclopropylamino)-5,6-dimethylpyrimidin-4-yl)-N-(1-methyl-1H-pyrazol-5-yl)-5,6,7,8-tetrahydro-1,6-naphthyridin-3-amine], the maximal effect (Emax) at 30 µM was 95% and the concentration giving a half-maximal response (EC50) was found to be 178 nM. For `Cc1nc(NC2CCOC2)nc(N2CCc3ncc(Nc4ccnn4C)cc3C2)c1C` (stereo not drawn) [compound 279, 6-(5,6-dimethyl-2-((tetrahydrofuran-3-yl)amino)pyrimidin-4-yl)-N-(1-methyl-1H-pyrazol-5-yl)-5,6,7,8-tetrahydro-1,6-naphthyridin-3-amine], in that order: 103% and 191 nM.

As for `Cc1nc(NCC(C)(C)O)nc(N2CCc3ncc(Nc4ccnn4C)cc3C2)c1C` [compound 280, 1-((4,5-dimethyl-6-(3-((1-methyl-1H-pyrazol-5-yl)amino)-7,8-dihydro-1,6-naphthyridin-6(5/I)-yl)pyrimidin-2-yl)amino)-2-methylpropan-2-ol], the Emax at 30 µM stood at 105% and the 50% effective concentration (EC50) was 261 nM. Consider `FC(F)(F)c1cnc2c(c1)CN(c1nc(Cl)nc3c1COC3)CC2` [compound 281, 2-chloro-4-(3-(trifluoromethyl)-7,8-dihydro-1,6-naphthyridin-6(5H)-yl)-5,7-dihydrofuro[3,4-d]pyrimidine], for which the EC50 came to 3290 nM.

For the compound `Clc1nc2c(c(N3CCc4ncc(N5CCCn6nccc65)cc4C3)n1)COC2` [compound 282, 2-chloro-4-(3-(6,7-dihydropyrazolo[1,5-a]pyrimidin-4(5H)-yl)-7,8-dihydro-1,6-naphthyridin-6(5H)-yl)-5,7-dihydrofuro[3,4-d]pyrimidine], the EC50 turned out to be 302 nM.

For the compound `Clc1nc2c(c(N3CCc4ncc(N5CCOc6ncccc65)cc4C3)n1)COC2` [compound 283, 1-(6-(2-chloro-5,7-dihydrofuro[3,4-d]pyrimidin-4-yl)-5,6,7,8-tetrahydro-1,6-naphthyridin-3-yl)-2,3-dihydro-1H-pyrido[2,3-b][1,4]oxazine], the 50% effective concentration (EC50) was found to be 368 nM.

On to `Cc1nn(C)cc1-c1cnc2c(c1)CN(c1nc(Cl)nc3c1COC3)CC2` [compound 285, 2-chloro-4-(3-(1,3-dimethyl-1H-pyrazol-4-yl)-7,8-dihydro-1,6-naphthyridin-6(5H)-yl)-5,7-dihydrofuro[3,4-d]pyrimidine], for which the Emax at 30 µM amounted to 30% and the EC50 turned out to be 1220 nM. As to `Clc1nc2c(c(N3CCc4ncc(-c5cnn(C6CC6)c5)cc4C3)n1)COC2` [compound 286, 2-chloro-4-(3-(1-cyclopropyl-1H-pyrazol-4-yl)-7,8-dihydro-1,6-naphthyridin-6(5H)-yl)-5,7-dihydrofuro[3,4-d]pyrimidine], the Emax at 30 µM came out at 33% and the half-maximal effective concentration (EC50) came to 504 nM.

Consider `Clc1nc2c(c(N3CCc4ncc(C5CC5)cc4C3)n1)COC2` [compound 287, 2-chloro-4-(3-cyclopropyl-7,8-dihydro-1,6-naphthyridin-6(5H)-yl)-5,7-dihydrofuro[3,4-d]pyrimidine], for which the concentration giving a half-maximal response (EC50) was 584 nM. Regarding `Cn1nccc1Nc1cnc2c(c1)CN(c1nc(Cl)nc3c1COC3)CC2` [compound 288, 6-(2-chloro-5,7-dihydrofuro[3,4-d]pyrimidin-4-yl)-N-(1-methyl-1H-pyrazol-5-yl)-5,6,7,8-tetrahydro-1,6-naphthyridin-3-amine], the EC50 was found to be 1220 nM. As to `Fc1ncccc1Nc1cnc2c(c1)CN(c1nc(Cl)nc3c1COC3)CC2` [compound 289, 6-(2-chloro-5,7-dihydrofuro[3,4-d]pyrimidin-4-yl)-N-(2-fluoropyridin-3-yl)-5,6,7,8-tetrahydro-1,6-naphthyridin-3-amine], the concentration for a half-maximal effect (EC50) was found to be 918 nM. The same measure, in the same setting: to `Fc1ccccc1Oc1cnc2c(c1)CN(c1nc(Cl)nc3c1COC3)CC2` [compound 290, 2-chloro-4-(3-(2-fluorophenoxy)-7,8-dihydro-1,6-naphthyridin-6(5H)-yl)-5,7-dihydrofuro[3,4-d]pyrimidine] belongs 991 nM. As to `Cc1cc(C#N)cnc1N1CCc2ncc(-c3ccns3)cc2C1` [compound 291, 6-(3-(isothiazol-5-yl)-7,8-dihydro-1,6-naphthyridin-6(5H)-yl)-5-methylnicotinonitrile], the Emax at 30 µM was 96% and the concentration for a half-maximal effect (EC50) came out at 88 nM.
